Here are results for 20 molecules from ChEMBL document CHEMBL2046291, “Potent inhibition of norovirus 3CL protease by peptidyl α-ketoamides and α-ketoheterocycles” (Bioorg Med Chem Lett, 2012).

Where only a bound is given, the exact number is not on record here.

Assay [1] can be described thus: Inhibition of Norovirus recombinant 3CL protease using Edans-EPDFHLQGPEDLAK-Dabcyl as substrate for 30 mins by fluorometry.
A further assay has as its system Norovirus. The assay is described as follows: Antiviral activity against Norovirus infected in human HG23 cells. The format is functional. Conditions: read-out: ED50 (the source's name).

As usually defined, the IC50 is the concentration needed to halve the response being measured.

For `CC(C)C[C@H](NC(=O)OCc1ccccc1)C(=O)N[C@@H](CC1CCNC1=O)C(=O)C(=O)NC(C)C` (stereo not given in full), in assay [1], the IC50 stood at 5.3 µM. Besides, in the assay on Norovirus, the EC50 worked out at 2.8 µM.

Turning to `CC(C)C[C@H](NC(=O)OCc1ccccc1)C(=O)N[C@@H](CC1CCNC1=O)C(=O)C(=O)NCc1ccccc1` (stereo not given in full), the IC50 in assay [1] is 7.1 µM. The EC50 in the assay on Norovirus came to 1.8 µM.

Take `CC(C)C[C@H](NC(=O)OCc1ccccc1)C(=O)N[C@@H](CC1CCNC1=O)C(O)C(=O)NC(C)C` (stereo not given in full): in assay [1], the IC50 came out at 45.3 µM. In the assay on Norovirus, the EC50 turned out to be 4.1 µM.

Regarding `CC(C)C[C@H](NC(=O)OCc1ccccc1)C(=O)N[C@@H](CC1CCNC1=O)C(O)C(=O)NC1CC1` (stereo not given in full), the IC50 in assay [1] is > 50 µM. In addition, the EC50 with Norovirus is > 10 µM.

For the molecule `CC(C)C[C@H](NC(=O)OCc1ccccc1)C(=O)N[C@@H](CC1CCNC1=O)C(=O)C(=O)NC1CC1` (stereo not given in full), in assay [1], the IC50 amounted to 3.4 µM. In the assay with Norovirus, the EC50 came to 1.1 µM.

As to `CCCCNC(=O)C(O)[C@H](CC1CCNC1=O)NC(=O)[C@H](CC(C)C)NC(=O)OCc1ccccc1` (stereo not given in full), in assay [1], the IC50 was > 50 µM. Besides, in the assay with Norovirus, the EC50 is > 20 µM.

In the case of `CCCCNC(=O)C(=O)[C@H](CC1CCNC1=O)NC(=O)[C@H](CC(C)C)NC(=O)OCc1ccccc1` (stereo not given in full), the IC50 in assay [1] is 4.1 µM. For the same molecule, in the assay on Norovirus, the EC50 was 1.3 µM.

Regarding `CCOC(=O)CNC(=O)C(O)[C@H](CC1CCNC1=O)NC(=O)[C@H](CC(C)C)NC(=O)OCc1ccccc1` (stereo not given in full), the IC50 in assay [1] is > 50 µM. The EC50 with Norovirus is > 10 µM.

Regarding `CCOC(=O)CNC(=O)C(=O)[C@H](CC1CCNC1=O)NC(=O)[C@H](CC(C)C)NC(=O)OCc1ccccc1` (stereo not given in full), in assay [1], the IC50 came to 2.1 µM. The EC50 with Norovirus amounted to 0.8 µM.

With `CC(C)C[C@H](NC(=O)OCc1ccccc1)C(=O)N[C@@H](CC1CCNC1=O)C(O)C(=O)NC1CCCCC1` (stereo not given in full), the IC50 in assay [1] was > 50 µM. For the same molecule, the EC50 with Norovirus was > 20 µM.

As to `CC(C)C[C@H](NC(=O)OCc1ccccc1)C(=O)N[C@@H](CC1CCNC1=O)C(=O)C(=O)NC1CCCCC1` (stereo not given in full), the IC50 in assay [1] turned out to be 3.5 µM. The EC50 in the assay with Norovirus was 1.2 µM.

As to `CC(C)C[C@H](NC(=O)OCc1ccccc1)C(=O)N[C@@H](CC1CCNC1=O)C(O)C(=O)NCc1ccccc1` (stereo not given in full), the IC50 in assay [1] was > 50 µM. Besides, the EC50 with Norovirus is > 20 µM.

In the case of `CC(C)C[C@H](NC(=O)OCc1ccccc1)C(=O)N[C@@H](CC1CCNC1=O)C(O)C(=O)NC(C)(C)C` (stereo not given in full), the IC50 in assay [1] is > 50 µM. Further, the EC50 with Norovirus was > 20 µM.

For the molecule `CC(C)C[C@H](NC(=O)OCc1ccccc1)C(=O)N[C@@H](CC1CCNC1=O)C(=O)C(=O)NC(C)(C)C` (stereo not given in full), the IC50 in assay [1] came to 2.8 µM. For the same molecule, the EC50 in the assay with Norovirus is 1.1 µM.

Take `CC(C)NC(=O)C(O)[C@H](CC1CCNC1=O)NC(=O)[C@H](Cc1ccccc1)NC(=O)OCc1ccccc1` (stereo not given in full): in assay [1], the IC50 came out at 23.1 µM. Besides, the EC50 with Norovirus was 6.3 µM.

`CC(C)NC(=O)C(=O)[C@H](CC1CCNC1=O)NC(=O)[C@H](Cc1ccccc1)NC(=O)OCc1ccccc1` (stereo not given in full): the concentration for half-maximal inhibition (IC50) in assay [1] stood at 21.5 µM. Moreover, the EC50 with Norovirus is 4.2 µM.

Turning to `CC(C)C[C@H](NC(=O)OCc1ccccc1)C(=O)N[C@@H](CC1CCNC1=O)C(O)c1ncco1` (stereo not given in full), in assay [1], the IC50 was > 50 µM. The EC50 in the assay on Norovirus was > 20 µM.

Consider `CC(C)C[C@H](NC(=O)OCc1ccccc1)C(=O)N[C@@H](CC1CCNC1=O)C(=O)c1ncco1` (stereo not given in full), for which the IC50 in assay [1] came to 2.3 µM. Moreover, in the assay on Norovirus, the EC50 came to 0.9 µM.

Turning to `CC(C)C[C@H](NC(=O)OCc1ccccc1)C(=O)N[C@@H](CC1CCNC1=O)C(O)c1nccs1` (stereo not given in full), the IC50 in assay [1] turned out to be 12.3 µM. In addition, the EC50 with Norovirus was determined as 4.3 µM.

On to `CC(C)C[C@H](NC(=O)OCc1ccccc1)C(=O)N[C@@H](CC1CCNC1=O)C(=O)c1nccs1` (stereo not given in full), for which, in assay [1], the IC50 amounted to 8.8 µM. In the assay on Norovirus, the EC50 is 4.2 µM.
